Measured values taken from patent US20240158418A1 (C4 Therapeutics, Inc., priority 2021, published 2024).
Where two headings read alike, the source gives them in different places.

Legend:
Type in all cases: cell-based
[1] = target: T1, EGFR L858R-T790M (Homo sapiens, UniProt P00533, L858R/T790M); assay: EGFR degradation, Total EGFR (L858R-specific) HTRF, NCI-H1975; settings: NCI-H1975 cells, 6 hours, Total EGFR HTRF, read-out: H1975 EGFR DC50
T1 construct: NCI-H1975 (harboring EGFR heterozygous L858R-T790M mutations); host or cells: NCI-H1975
T1 sequence (P00533 25-1210 T790M/L858R): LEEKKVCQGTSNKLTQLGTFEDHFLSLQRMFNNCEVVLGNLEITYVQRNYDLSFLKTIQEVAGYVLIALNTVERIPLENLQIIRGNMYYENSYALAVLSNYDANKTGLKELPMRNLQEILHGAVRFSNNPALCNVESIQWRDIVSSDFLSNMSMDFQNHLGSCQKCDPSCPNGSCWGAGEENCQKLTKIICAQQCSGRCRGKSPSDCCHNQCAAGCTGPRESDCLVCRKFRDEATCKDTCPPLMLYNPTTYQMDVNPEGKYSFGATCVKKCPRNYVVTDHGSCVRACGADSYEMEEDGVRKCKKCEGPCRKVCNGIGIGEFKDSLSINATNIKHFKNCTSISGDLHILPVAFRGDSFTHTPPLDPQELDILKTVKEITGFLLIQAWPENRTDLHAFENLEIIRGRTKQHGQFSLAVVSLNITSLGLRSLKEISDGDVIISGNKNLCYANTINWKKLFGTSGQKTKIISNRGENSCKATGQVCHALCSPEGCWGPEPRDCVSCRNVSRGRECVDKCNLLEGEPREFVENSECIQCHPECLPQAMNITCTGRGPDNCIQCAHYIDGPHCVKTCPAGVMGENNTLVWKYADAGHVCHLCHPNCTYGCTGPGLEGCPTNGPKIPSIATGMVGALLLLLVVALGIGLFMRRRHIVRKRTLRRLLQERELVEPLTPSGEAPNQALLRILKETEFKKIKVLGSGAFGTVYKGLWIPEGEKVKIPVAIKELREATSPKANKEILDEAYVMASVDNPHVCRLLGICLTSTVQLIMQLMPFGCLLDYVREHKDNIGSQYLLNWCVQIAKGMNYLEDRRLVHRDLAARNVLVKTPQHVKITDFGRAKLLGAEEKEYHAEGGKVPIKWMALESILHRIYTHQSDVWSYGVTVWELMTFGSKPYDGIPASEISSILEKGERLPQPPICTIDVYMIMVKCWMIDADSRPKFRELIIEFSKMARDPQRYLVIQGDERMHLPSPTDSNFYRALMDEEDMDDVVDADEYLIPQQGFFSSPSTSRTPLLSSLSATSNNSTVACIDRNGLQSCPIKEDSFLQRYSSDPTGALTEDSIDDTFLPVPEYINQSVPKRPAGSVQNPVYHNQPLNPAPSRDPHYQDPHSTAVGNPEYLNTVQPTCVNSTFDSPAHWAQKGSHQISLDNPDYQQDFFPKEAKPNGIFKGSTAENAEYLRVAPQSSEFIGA
In short: (§1)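 FRET signal from HTRF kits measured phospho-EGFR at pY1068 or total EGFR after 6 h treatment at 37 °C. Compounds ran as 11-point half-log dilutions from 10 μM in duplicate, in cells in phenol red-free RPMI with 10% FBS. Concentrations giving 50% inhibition or degradation were reported as IC50 or DC50.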

[2] = target: T2, EGFR L858R-T790M-C797S (Homo sapiens, UniProt P00533, C797S/L858R/T790M); assay: EGFR degradation, Total EGFR (L858R-specific) HTRF, NCI-H1975+CS; settings: 6 hours, Total EGFR HTRF
T2 construct: generated using CRISPR technology to introduce the additional C797S mutation by Horizon Discovery; host or cells: NCI-H1975+CS (CRISPR knock-in of C797S)
T2 sequence (P00533 25-1210 T790M/C797S/L858R): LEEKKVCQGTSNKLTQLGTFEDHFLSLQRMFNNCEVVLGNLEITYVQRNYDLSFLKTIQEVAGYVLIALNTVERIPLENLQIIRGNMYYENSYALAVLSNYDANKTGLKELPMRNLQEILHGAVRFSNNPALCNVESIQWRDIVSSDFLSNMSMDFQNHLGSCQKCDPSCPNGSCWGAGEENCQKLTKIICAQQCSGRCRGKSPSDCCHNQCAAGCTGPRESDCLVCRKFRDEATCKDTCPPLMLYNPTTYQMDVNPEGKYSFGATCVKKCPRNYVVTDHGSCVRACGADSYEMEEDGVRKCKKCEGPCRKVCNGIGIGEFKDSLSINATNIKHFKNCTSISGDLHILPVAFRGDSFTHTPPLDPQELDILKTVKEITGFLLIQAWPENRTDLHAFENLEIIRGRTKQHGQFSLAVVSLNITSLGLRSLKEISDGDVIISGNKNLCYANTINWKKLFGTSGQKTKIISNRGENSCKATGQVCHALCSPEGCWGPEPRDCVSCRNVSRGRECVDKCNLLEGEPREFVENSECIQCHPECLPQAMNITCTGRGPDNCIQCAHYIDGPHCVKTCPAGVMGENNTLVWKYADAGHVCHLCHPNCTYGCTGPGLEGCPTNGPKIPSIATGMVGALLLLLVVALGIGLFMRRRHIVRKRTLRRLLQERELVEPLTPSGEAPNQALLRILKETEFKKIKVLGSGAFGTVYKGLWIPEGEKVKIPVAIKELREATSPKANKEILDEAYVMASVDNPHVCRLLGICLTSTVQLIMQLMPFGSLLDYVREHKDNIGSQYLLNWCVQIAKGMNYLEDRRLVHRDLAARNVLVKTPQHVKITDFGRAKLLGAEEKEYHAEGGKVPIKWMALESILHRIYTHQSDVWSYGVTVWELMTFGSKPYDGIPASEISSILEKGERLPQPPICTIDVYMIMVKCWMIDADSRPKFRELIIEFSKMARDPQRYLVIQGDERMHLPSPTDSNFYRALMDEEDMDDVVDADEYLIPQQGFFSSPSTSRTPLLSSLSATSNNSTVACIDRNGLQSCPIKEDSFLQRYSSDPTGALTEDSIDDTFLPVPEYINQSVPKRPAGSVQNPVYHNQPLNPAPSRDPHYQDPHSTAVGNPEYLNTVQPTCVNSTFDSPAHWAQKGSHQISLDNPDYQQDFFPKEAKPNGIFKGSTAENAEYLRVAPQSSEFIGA
Text: NCI-H1975 (harboring EGFR heterozygous L858R-T790M mutations) and NCI-H3255 (harboring EGFR heterozygous L858R mutation) were purchased from ATCC and NCI, respectively. NCI-H1975+CS (harboring EGFR heterozygous L858R-T790M-C797S mutations) was generated using CRISPR technology to introduce the additional C797S mutation by Horizon Discovery. A431 (harboring EGFR wildtype) was purchased from ATCC. RPMI 1640 no-phenol red medium and fetal bovine serum (FBS) were purchased from Gibco (Grand Island, NY, USA). Cell culture flasks and 384-well microplates were acquired from VWR (Radnor, PA, USA). Phosphorylated (pY1068) EGFR and Total EGFR (using L858R-specific detection antibody and pan-EGFR antibody for EGFR mutant cell lines and EGFR wild-type cell lines, respectively) HTRF assay kits were purchased from Cisbio (Bedford, MA, USA).
Degradation of EGFR protein containing L858R mutation or wild-type was determined based on quantification of FRET signal using a Total EGFR (L858R-specific or pan-EGFR detecting) HTRF assay kit. Phospho-EGFR (pEGFR) inhibition was determined based on quantification of FRET signal using a pY1068 EGFR HTRF assay kit. In separate assay plates, test compounds were added to the 384-well plate from a top concentration of 10 μM with 11 points, half log titration in duplicates. For each assay, 12.5 uL of cells suspended in assay media (RPMI 1640 no-phenol red medium+10% FBS) at cell densities indicated for each cell line in Table 8 below were dispensed using a multi-channel pipette to 384-well low volume white HTRF microplates containing a duplicate concentration range of test compounds and DMSO controls. The plates were kept at 37° C. with 5% CO2 for 6 hours and then incubated with either phospho EGFR or Total EGFR HTRF detection antibodies according to the cell line and EGFR mutant being assayed. Cells treated in the absence of the test compound were the negative control. Positive control was set by wells containing all reagents but no cells. FRET signal was acquired on EnVision™ Multilabel Reader (PerkinElmer, Santa Clara, CA, USA). Compound concentration that achieves 50% degradation and inhibition was reported as DC50 and IC50, respectively.

[3] = target: EGFR L858R (Homo sapiens, UniProt P00533, L858R); assay: EGFR degradation, Total EGFR (L858R-specific) HTRF, NCI-H3255; parameters: NCI-H3255 (harboring EGFR heterozygous L858R mutation); host or cells: NCI-H3255; settings: NCI-H3255 cells, 6 hours, Total EGFR HTRF, read-out: H3255 EGFR DC50
EGFR L858R, sequence (P00533 25-1210 L858R): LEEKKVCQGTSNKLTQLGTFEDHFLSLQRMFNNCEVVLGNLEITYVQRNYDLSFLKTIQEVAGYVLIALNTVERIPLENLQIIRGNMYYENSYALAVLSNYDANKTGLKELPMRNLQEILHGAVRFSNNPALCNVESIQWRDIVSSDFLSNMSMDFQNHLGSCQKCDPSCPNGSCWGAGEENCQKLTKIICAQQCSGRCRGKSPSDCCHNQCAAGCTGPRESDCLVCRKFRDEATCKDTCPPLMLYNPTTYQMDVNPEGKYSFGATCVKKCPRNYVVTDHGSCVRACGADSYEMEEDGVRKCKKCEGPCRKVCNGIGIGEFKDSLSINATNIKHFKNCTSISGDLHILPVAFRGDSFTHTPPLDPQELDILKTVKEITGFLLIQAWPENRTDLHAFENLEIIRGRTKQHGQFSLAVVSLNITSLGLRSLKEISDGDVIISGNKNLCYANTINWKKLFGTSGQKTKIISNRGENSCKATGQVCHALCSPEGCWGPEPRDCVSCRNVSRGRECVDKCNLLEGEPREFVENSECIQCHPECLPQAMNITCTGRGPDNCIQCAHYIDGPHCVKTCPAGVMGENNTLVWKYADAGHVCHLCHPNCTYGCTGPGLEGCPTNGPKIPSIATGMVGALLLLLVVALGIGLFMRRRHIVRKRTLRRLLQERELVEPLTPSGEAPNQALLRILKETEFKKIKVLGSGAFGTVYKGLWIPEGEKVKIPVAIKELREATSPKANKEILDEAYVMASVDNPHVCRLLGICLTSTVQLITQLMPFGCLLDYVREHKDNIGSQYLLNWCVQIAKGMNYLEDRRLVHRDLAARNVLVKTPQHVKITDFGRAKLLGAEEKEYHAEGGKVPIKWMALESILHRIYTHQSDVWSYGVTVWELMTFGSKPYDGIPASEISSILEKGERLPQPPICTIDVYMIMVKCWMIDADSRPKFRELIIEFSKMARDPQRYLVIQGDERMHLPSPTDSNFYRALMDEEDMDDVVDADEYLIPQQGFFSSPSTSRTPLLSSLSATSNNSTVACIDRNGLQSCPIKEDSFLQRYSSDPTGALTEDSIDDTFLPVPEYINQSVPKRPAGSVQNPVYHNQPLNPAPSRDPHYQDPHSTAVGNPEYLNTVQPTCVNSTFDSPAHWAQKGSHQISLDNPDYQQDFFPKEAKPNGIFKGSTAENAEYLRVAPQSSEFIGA
In short: as §1

[4] = Table 9A, NCI-H1975+CS cells, read-out: H1975+ CS EGFR DC50
[5] = Table 9B, NCI-H1975 C797S clone, read-out: H1975 C797S clone EGFR DC50

| SMILES | DC50 ([1]; Table 9A) [nM] | DC50 [2, 4] [nM] | DC50 ([3]; Table 9A) [nM] | DC50 ([1]; Table 9B) [nM] | DC50 [2, 5] [nM] | DC50 ([3]; Table 9B) [nM] |
| --- | --- | --- | --- | --- | --- | --- |
| O=C1CCC(Nc2ccc(C3CCN(CC(=O)N4CCC(NC(=O)c5ccc(C#Cc6cc(F)c7c(c6)C(=O)N(C(C(=O)Nc6nccs6)c6ncn8c6CCC8)C7)cn5)CC4)CC3)cc2)C(=O)N1 (stereo not drawn) [Compound 97, 5-((2-(1-(6,7-dihydro-5H-pyrrolo[1,2-c]imidazol-1-yl)-2-oxo-2-(thiazol-2-ylamino)ethyl)-7-fluoro-3-oxoisoindolin-5-yl)ethynyl)-N-(1-(2-(4-(4-((2,6-dioxopiperidin-3-yl)amino)phenyl)piperidin-1-yl)acetyl)piperidin-4-yl)picolinamide] |  |  |  | < 50 | < 50 | < 50 |
| Cn1nc(N2CCC(=O)NC2=O)c2ccc(C3CCN(CC(=O)N4CCN(c5ccc(-c6cc(F)c7c(c6)C(=O)N(C(C(=O)Nc6nccs6)c6ncn8c6CCC8)C7)cc5)CC4)CC3)cc21 (stereo not drawn) [Compound 17, 2-(6,7-dihydro-5H-pyrrolo[1,2-c]imidazol-1-yl)-2-(6-(4-(4-(2-(4-(3-(2,4-dioxotetrahydropyrimidin-1(2H)-yl)-1-methyl-1H-indazol-6-yl)piperidin-1-yl)acetyl)piperazin-1-yl)phenyl)-4-fluoro-1-oxoisoindolin-2-yl)-N-(thiazol-2-yl)acetamide] | < 50 | < 50 | < 50 |  |  |  |
| O=C1CCC(Nc2ccc(C3CCN(CC(=O)N4CC5(C4)CN(c4ccc(-c6cc(F)c7c(c6)C(=O)N(C(C(=O)Nc6nccs6)c6ncn8c6CCC8)C7)cc4)C5)CC3)cc2)C(=O)N1 (stereo not drawn) [Compound 47, 2-(6,7-dihydro-5H-pyrrolo[1,2-c]imidazol-1-yl)-2-[6-[4-[2-[2-[4-[4-[(2,6-dioxo-3-piperidyl)amino]phenyl]-1-piperidyl]acetyl]-2,6-diazaspiro[3.3]heptan-6-yl]phenyl]-4-fluoro-1-oxo-isoindolin-2-yl]-N-thiazol-2-yl-acetamide] | < 50 | < 50 | < 50 |  |  |  |
| Cn1nc(N2CCC(=O)NC2=O)c2ccc([C@@H]3CCN(CC(=O)N4CC5(C4)CN(c4ccc(-c6cc(F)c7c(c6)C(=O)N(C(C(=O)Nc6nccs6)c6ncn8c6CCC8)C7)cc4)C5)CC3(F)F)cc21 (stereo partly drawn) [Compound 94, 2-(6,7-dihydro-5H-pyrrolo[1,2-c]imidazol-1-yl)-2-(6-(4-(6-(2-((S)-4-(3-(2,4-dioxotetrahydropyrimidin-1(2H)-yl)-1-methyl-1H-indazol-6-yl)-3,3-difluoropiperidin-1-yl)acetyl)-2,6-diazaspiro[3.3]heptan-2-yl)phenyl)-4-fluoro-1-oxoisoindolin-2-yl)-N-(thiazol-2-yl)acetamide] |  |  |  | < 50 | < 50 | < 50 |
| O=C1CC[C@@H](Nc2ccc(C3CCN(CC(=O)N4CCC(Oc5ccc(-c6cc(F)c7c(c6)C(=O)N(C(C(=O)Nc6nccs6)c6ncn8c6CCC8)C7)cc5)CC4)CC3)cc2)C(=O)N1 (stereo partly drawn) [Compound 33, 2-(6,7-dihydro-5H-pyrrolo[1,2-c]imidazol-1-yl)-2-[6-[4-[[1-[2-[4-[4-[[(3R)-2,6-dioxo-3-piperidyl]amino]phenyl]-1-piperidyl]acetyl]-4-piperidyl]oxy]phenyl]-4-fluoro-1-oxo-isoindolin-2-yl]-N-thiazol-2-yl-acetamide] | < 50 | < 50 | < 50 |  |  |  |
| O=C1CCC(Nc2ccc(C3CCN(CC(=O)N4CCN(c5ccc(-c6cc(F)c7c(c6)C(=O)N(C(C(=O)Nc6ccccn6)c6ncn8c6CCC8)C7)cc5)CC4)CC3)cc2)C(=O)N1 (stereo not drawn) [Compound 19, 2-(6,7-dihydro-5H-pyrrolo[1,2-c]imidazol-1-yl)-2-(6-(4-(4-(2-(4-(4-((2,6-dioxopiperidin-3-yl)amino)phenyl)piperidin-1-yl)acetyl)piperazin-1-yl)phenyl)-4-fluoro-1-oxoisoindolin-2-yl)-N-(pyridin-2-yl)acetamide] | 50 to 150 | < 50 | < 50 |  |  |  |

Second part, the compound after the results:

| DC50 ([1]; Table 9A) [nM] | DC50 [2, 4] [nM] | DC50 ([3]; Table 9A) [nM] | DC50 ([1]; Table 9B) [nM] | DC50 [2, 5] [nM] | DC50 ([3]; Table 9B) [nM] | SMILES |
| --- | --- | --- | --- | --- | --- | --- |
| < 50 | < 50 | < 50 |  |  |  | O=C1CCC(Nc2ccc(C3CCN(CC(=O)N4CCN(c5ccc(-c6cc(F)c7c(c6)C(=O)N(C(C(=O)Nc6nccs6)c6ncn8c6CCC8)C7)cc5)CC4)CC3)cc2)C(=O)N1 (stereo not drawn) [Compound 55, 2-(6,7-dihydro-5H-pyrrolo[1,2-c]imidazol-1-yl)-2-[6-[4-[4-[2-[4-[4-[(2,6-dioxo-3-piperidyl)amino]phenyl]-1-piperidyl]acetyl]piperazin-1-yl]phenyl]-4-fluoro-1-oxo-isoindolin-2-yl]-N-thiazol-2-yl-acetamide] |
| < 50 | < 50 | < 50 |  |  |  | N#Cc1cc(NC2CCC(=O)NC2=O)ccc1C1CCN(CC(=O)N2CCC(c3ccc(-c4cc(F)c5c(c4)C(=O)N(C(C(=O)Nc4nccs4)c4ncn6c4CCC6)C5)cc3)CC2)CC1 (stereo not drawn) [Compound 25, 2-(6-(4-(1-(2-(4-(2-cyano-4-((2,6-dioxopiperidin-3-yl)amino)phenyl)piperidin-1-yl)acetyl)piperidin-4-yl)phenyl)-4-fluoro-1-oxoisoindolin-2-yl)-2-(6,7-dihydro-5H-pyrrolo[1,2-c]imidazol-1-yl)-N-(thiazol-2-yl)acetamide] |
| < 50 | < 50 | < 50 |  |  |  | O=C1CCC(Nc2ccc(C3CCN(CC(=O)N4CCN(Cc5ccc(-c6cc(F)c7c(c6)C(=O)N(C(C(=O)Nc6nccs6)c6ncn8c6CCC8)C7)cc5)CC4)CC3)c(F)c2)C(=O)N1 (stereo not drawn) [Compound 57, 2-(6,7-dihydro-5H-pyrrolo[1,2-c]imidazol-1-yl)-2-[6-[4-[[4-[2-[4-[4-[(2,6-dioxo-3-piperidyl)amino]-2-fluoro-phenyl]-1-piperidyl]acetyl]piperazin-1-yl]methyl]phenyl]-4-fluoro-1-oxo-isoindolin-2-yl]-N-thiazol-2-yl-acetamide] |
| < 50 | < 50 | < 50 |  |  |  | N#Cc1cc(NC2CCC(=O)NC2=O)ccc1C1CCN(CC(=O)N2CCN(c3ccc(-c4cc(F)c5c(c4)C(=O)N(C(C(=O)Nc4nccs4)c4ncn6c4CCC6)C5)cc3)CC2)CC1 (stereo not drawn) [Compound 14, 2-[6-[4-[4-[2-[4-[2-cyano-4-[(2,6-dioxo-3-piperidyl)amino]phenyl]-1-piperidyl]acetyl]piperazin-1-yl]phenyl]-4-fluoro-1-oxo-isoindolin-2-yl]-2-(6,7-dihydro-5H-pyrrolo[1,2-c]imidazol-1-yl)-N-thiazol-2-yl-acetamide] |
| < 50 | < 50 | < 50 |  |  |  | O=C1CC[C@H](Nc2ccc(C3CCN(CC(=O)N4CCN(c5ccc(-c6cc(F)c7c(c6)C(=O)N(C(C(=O)Nc6nccs6)c6ncn8c6C[C@@H](F)C8)C7)cc5)CC4)CC3)c(F)c2)C(=O)N1 (stereo partly drawn) [Compound 44, 2-[6-[4-[4-[2-[4-[4-[[(3S)-2,6-dioxo-3-piperidyl]amino]-2-fluoro-phenyl]-1-piperidyl]acetyl]piperazin-1-yl]phenyl]-4-fluoro-1-oxo-isoindolin-2-yl]-2-[(6R)-6-fluoro-6,7-dihydro-5H-pyrrolo[1,2-c]imidazol-1-yl]-N-thiazol-2-yl-acetamide] |
